This is an account of results in PubChem BioAssay AID1996.

In brackets after ≈: the same amount, converted by molar mass. Residues, ends and D or L forms follow the SMILES beside them. *: point of attachment. OBn = c1ccc(CO*)cc1

The conditions of the series: buffer; pH 7.4; 200.0 µM.
In the case of `COc1ccccc1CNc1cncnc1`, the kinetic solubility (in general, solubility judged after dilution from a stock solution rather than from solid) is 28.2 µg/mL (≈ 131 µM).

Molecule `CCCOc1ccc(S(=O)(=O)Nc2ccccn2)c2ccccc12` registered a kinetic solubility of less than 0.4 µg/mL. The molecule `Cc1cccnc1NC(=O)CCCc1c[nH]c2ccccc12` returned a solubility (kinetic) of 36.8 µg/mL (≈ 125 µM). With `CC(OC(=O)Cc1c[nH]c2ccccc12)C(=O)NC1(C#N)CCCCC1` (configuration not stated), the kinetic solubility was more than 53 µg/mL. The molecule `CC(=O)NS(=O)(=O)c1ccc(NC(=S)Nc2ccccc2)cc1` yielded a kinetic solubility of more than 52.4 µg/mL. Under `CCCc1c(C)nc(N2CCN(c3ccccc3F)CC2)[nH]c1=O` stands 0.4 µg/mL (≈ 1.21 µM); under `Clc1ccc(N2CCN(Cc3ccc(Br)o3)CC2)cc1`, 1.4 µg/mL (≈ 3.94 µM). Consider `CC(C)(C)c1ccc(-c2noc(CCC(=O)Nc3cccnc3)n2)cc1`, for which the solubility (kinetic) worked out at 3.1 µg/mL (≈ 8.85 µM). `CCOC(=O)c1c(NCCN(C)C)c2ccccc2[nH]c1=O` registered a kinetic solubility of more than 45.5 µg/mL.

`Cc1cccc(-c2nc(Nc3cccc(O)c3)c3ccccc3n2)c1` showed a kinetic solubility of 1 µg/mL (≈ 3.05 µM). Turning to `Cc1cc(C(=O)COC(=O)Cc2ccc(Br)cc2)c(C)n1C`, the kinetic solubility came out at 15.2 µg/mL (≈ 41.7 µM). Under `Cc1ccc2oc(C(=O)Nc3nonc3C)c(C)c2c1` stands less than 0.2 µg/mL; under `CCOC(=O)CN1C(=O)S/C(=C/c2ccco2)C1=O`, 21.2 µg/mL (≈ 75.4 µM). Under `Cc1cc(C)c(C(=O)Nc2cccc(F)c2)c(Cl)n1` stands more than 41.8 µg/mL; under `O=S(=O)(CCSc1ccc(C(F)(F)F)cn1)c1ccccc1`, 4.7 µg/mL (≈ 13.5 µM); under `COc1cccc(C(=O)c2cc3cc(Cl)ccc3[nH]2)c1`, less than 0.6 µg/mL. The figure for `Cc1nn(C)c(Cl)c1CN1CCN(CCC(C)C)C(CCO)C1` (configuration not stated) is more than 51.4 µg/mL. `COc1ccccc1OCc1ccc(C(=O)NC2CCCCC2)o1`: the kinetic solubility turned out to be 39.8 µg/mL (≈ 121 µM).

With `O=c1[nH]c2ccc(NC(=S)Nc3ccc(F)cc3)cc2[nH]1`, the kinetic solubility was more than 45.3 µg/mL. The molecule `CCc1nc(SCc2ccccn2)[nH]c(=O)c1C` showed a kinetic solubility of more than 39.2 µg/mL.

Turning to `CCc1nccn1S(=O)(=O)c1cc(OC)ccc1OC`, the solubility (kinetic) amounted to 32.9 µg/mL (≈ 111 µM). On to `Cc1ccc(/C=C/C(=O)N2CCCC(C(N)=O)C2)o1` (configuration not stated), for which the kinetic solubility was more than 39.3 µg/mL.

Molecule `CCOc1ccc(C(=O)Nc2nc(C)c(C(=O)OC)s2)cc1` registered a solubility (kinetic) of less than 0.3 µg/mL. `O=C(NCc1ccc(F)cc1)c1cccnc1`: the solubility (kinetic) is more than 34.5 µg/mL. The molecule `C=CCNC(=S)N1CCN(CCNC2=CC(=O)CC(C)(C)C2)CC1` returned a kinetic solubility of more than 52.6 µg/mL.

With `O=C(CS(=O)(=O)c1ccc2ccccc2c1)N1CCCCCC1`, the solubility (kinetic) was 47.1 µg/mL (≈ 142 µM). The figure for `c1ccc(CSc2nc3ccccc3[nH]2)cc1` is 2.1 µg/mL (≈ 8.74 µM); for `Cn1c(=O)c2c(ncn2CCO)n(C)c1=O` it is more than 33.6 µg/mL.

`CC(=O)c1cccc(NC(=O)CCNC(=O)c2cccc(C)c2)c1`: the kinetic solubility is 20.5 µg/mL (≈ 63.2 µM). The molecule `O=C1OCCN/C1=C\C(=O)c1ccc(Cl)cc1` had a solubility (kinetic) of more than 37.8 µg/mL. In turn, `C=CC(=O)Oc1ccc(N2Cc3ccccc3C2=O)cc1` registered a kinetic solubility of 2.4 µg/mL (≈ 8.59 µM). Under `CCCOc1ccc(C2NC(=O)CCC2[N+](=O)[O-])cc1` (configuration not stated) stands more than 41.7 µg/mL; under `COc1ccccc1NCC(=O)c1ccc(C)c(C)c1`, 2.6 µg/mL (≈ 9.65 µM). As to `Cc1ccc(C(C)C)c(OC/C(O)=C(\C#N)c2nc3ccccc3[nH]2)c1`, the kinetic solubility was less than 0.2 µg/mL. Under `O=C1N=c2ccccc2=C1c1sc(=O)[nH]c1O` stands more than 36.9 µg/mL; under `Cc1ccc(-n2c(C)cc(=O)cc2C)cc1[N+](=O)[O-]`, more than 38.7 µg/mL; under `NC(=O)CSc1nnc(Cc2ccc3c(c2)OCO3)o1`, more than 44 µg/mL. Turning to `Cc1ccc(NC(=O)c2ccc(Cl)nc2)cc1`, the solubility (kinetic) is 9.3 µg/mL (≈ 37.7 µM). Under `CC1CC1C(=O)OCC(=O)Nc1ccc(S(=O)(=O)N2CCOCC2)cc1` (configuration not stated) stands more than 57.4 µg/mL; under `O=C(NCc1cccnc1)Nc1cccc([N+](=O)[O-])c1`, more than 40.8 µg/mL; under `CCOC(=O)c1c(C)n(Cc2ccc(F)cc2)c2ccc(O)cc12`, less than 0.7 µg/mL. As for `CN1CCN(c2ccccc2NC(=O)c2cccc([N+](=O)[O-])c2)CC1`, the solubility (kinetic) was more than 51.1 µg/mL. Regarding `Cc1ccc(C)c(NC(=S)N(C)C)c1`, the kinetic solubility was more than 31.2 µg/mL. The figure for `COc1ccc(-c2ccc(CCC(=O)O)n2-c2ccccc2O)cc1` is more than 50.6 µg/mL; for `Cc1ccc(C(=O)NCCNC(=O)c2ccc(F)cc2)cn1` it is more than 45.2 µg/mL.

`O=C(NCc1ccc2c(c1)OCO2)c1c(Cl)cccc1Cl` returned a kinetic solubility of 15 µg/mL (≈ 46.3 µM). Under `Clc1nc(-c2ccccc2)ncc1Oc1ccccc1` stands less than 0.3 µg/mL.

With `CC(C)C1Nc2ccc(C(=O)NC3CCCCC3)cc2NC1=O` (configuration not stated), the kinetic solubility was more than 47.3 µg/mL. Under `O=C(O)CCNc1ccc(Cl)cc1` stands more than 29.9 µg/mL. On to `CC(=O)NCC(=O)N[C@@H](CC(=O)OCc1ccccc1)C(=O)OCc1ccccc1` (Ac-Gly-Asp(OBn)-OBn), for which the kinetic solubility was more than 61.9 µg/mL.

Molecule `CCCCOC(=O)c1ccc(OC(=O)N2CCOCC2)cc1` came in with a kinetic solubility of more than 46.1 µg/mL. On to `O=C1Nc2ccccc2/C1=C/c1ccccc1F`, for which the solubility (kinetic) worked out at 2.4 µg/mL (≈ 10 µM).
